Consider three compounds from patent US9974301B2, “Fungicidal composition for controlling phytopathogenic diseases, comprising a mixture of the volatile compounds ethanol, 3-methylbutanol, isobutyl acetate, isoamyl acetate and alpha-bisabolol; and the use thereof for inhibiting the growth of the pathogenic fungus botrytis cinerea” (UNIVERSIDAD DE LA FRONTERA, priority 2013, dated 2018).

The subject of the assay is Botrytis cinerea. Briefly: Inhibition of growth of Botrytis cinerea by artificial VOC mixture and pure compounds, bi compartmentalized Petri dishes (vapour exposure). It is filed as cell-based. As to conditions: pure compounds at their relative proportion of 0.70 μl/mL mixture (ethanol 0.11, isobutyl acetate 0.14, isoamyl acetate 0.13, α-bisabolol 0.10 μl/mL head space); after four days. On the procedure:
For this, bi compartmentalized Petri dishes (94×16 mm) (Greiner, Germany) coated with culture medium were used, leaving a head space of 60 mL. One compartment was inoculated with mycelium (3 mm radius disk) of the saprophytic fungus (S. commune). The other compartment was inoculated with fresh mycelium of B. cinerea. In this bioassay there was no physical contact between the two fungi. The control treatment consisted of placing the mycelium of B. cinerea in only one of the compartments. All experimental units (Petri dishes) were covered and sealed with Parafilm M®, and incubated at 25° C. in the dark until the growth of any fungi (treatment and control) reached the edge of the central wall of the Petri dish. The mycelial growth was measured using a magnifying glass (Japan Optical), and data were expressed as percent of inhibition relative to control. Each treatment was repeated 10 times.
The inhibitory power of pure compounds and of a mixture based on their percent ratio were assessed. The methodology was similar to that detailed above to assess the antifungal activity of saprophytic fungus. The minimum inhibitory concentration (MIC) and lethal dose 50% (LD50) were calculated by interpolation according to the polynomial equation (Y=−194.565812×2+318.001954×−25.561441; r2=0.982) (See FIG. 2).
6 formulations were tested at laboratory level: […]
Formulation 2: 0.11 μl ethanol per 1 mL of head space volume (airspace).
Formulation 3: 0.14 μl of isobutyl acetate per 1 mL of head space volume (airspace).
Formulation 4: 0.13 μl of isoamyl acetate per 1 mL of head space volume (airspace).
Formulation 5: 0.10 μl of α-bisabolol per 1 mL of head space volume (airspace).
The effect of each formulation for inhibiting the growth of B. cinerea was tested using bi compartmentalized dishes, according to the above methodology.

Take `CC(=O)OCCC(C)C` [isoamyl acetate]: the “percent of inhibition of Botrytis cinerea growth” value is on record as 77%.

Consider `CC(=O)OCC(C)C` [isobutyl acetate], for which the “percent of inhibition of Botrytis cinerea growth” value was found to be 47%. With α-bisabolol, the “percent of inhibition of Botrytis cinerea growth” value is recorded as “did not inhibit”.
